The values below come from patent publication US7803795B2, “Phthalazine derivatives as parp inhibitors” (Janssen Pharmaceutica N.V., priority 2004, dated 2010).

The target in one data set is T1, TANK-2 enzyme (Homo sapiens, UniProt Q9H2K2).
T1 construct: His tag (inferred from capture on a Ni-coated plate); made in house
T1 sequence (Q9H2K2 1-1166): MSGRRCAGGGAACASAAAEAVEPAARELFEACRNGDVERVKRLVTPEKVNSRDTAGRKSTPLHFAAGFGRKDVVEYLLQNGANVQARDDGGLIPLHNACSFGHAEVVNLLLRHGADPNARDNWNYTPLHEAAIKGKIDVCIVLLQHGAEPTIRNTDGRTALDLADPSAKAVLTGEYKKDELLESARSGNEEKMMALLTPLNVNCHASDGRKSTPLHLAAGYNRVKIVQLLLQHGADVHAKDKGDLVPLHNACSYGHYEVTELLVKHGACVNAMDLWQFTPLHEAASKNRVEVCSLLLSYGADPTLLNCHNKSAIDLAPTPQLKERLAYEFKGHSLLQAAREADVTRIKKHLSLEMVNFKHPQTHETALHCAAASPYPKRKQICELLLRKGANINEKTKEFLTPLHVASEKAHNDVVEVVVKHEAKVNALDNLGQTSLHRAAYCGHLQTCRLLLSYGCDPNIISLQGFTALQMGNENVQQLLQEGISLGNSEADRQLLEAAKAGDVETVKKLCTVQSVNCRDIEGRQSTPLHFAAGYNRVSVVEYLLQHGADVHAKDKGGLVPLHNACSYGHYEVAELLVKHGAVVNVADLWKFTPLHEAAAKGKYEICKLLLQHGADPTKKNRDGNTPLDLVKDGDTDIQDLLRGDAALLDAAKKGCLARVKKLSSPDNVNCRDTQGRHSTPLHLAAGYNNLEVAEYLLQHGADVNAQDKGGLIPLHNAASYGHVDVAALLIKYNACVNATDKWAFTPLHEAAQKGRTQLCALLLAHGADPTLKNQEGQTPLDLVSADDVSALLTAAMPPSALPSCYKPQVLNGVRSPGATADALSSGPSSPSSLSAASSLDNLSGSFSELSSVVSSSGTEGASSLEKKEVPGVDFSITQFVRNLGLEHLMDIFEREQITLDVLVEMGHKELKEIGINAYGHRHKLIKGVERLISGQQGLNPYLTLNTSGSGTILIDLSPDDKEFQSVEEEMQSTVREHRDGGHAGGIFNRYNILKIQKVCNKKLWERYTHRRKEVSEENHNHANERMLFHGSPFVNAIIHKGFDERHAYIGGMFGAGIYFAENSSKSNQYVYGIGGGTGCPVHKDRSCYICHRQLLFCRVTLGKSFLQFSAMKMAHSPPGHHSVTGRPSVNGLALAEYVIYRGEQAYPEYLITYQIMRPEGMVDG
Kind of data set: in vitro Scintillation Proximity Assay (SPA) for TANK-2 inhibitory activity. Type of data set: biochemical. As to the method: In Vitro Scintillation Proximity Assay (SPA) for Tank-2 Inhibitory Activity
Compounds of the present invention were tested in an in vitro assay based on SPA technology with Ni Flash plates (96 or 384 well).
In principle, the assay relies upon SPA technology for the detection of auto-poly(ADP-ribosylation of TANK-2 protein using [^3H]-nicotinamide adenine dinucleotide ([^3H]-NAD^+) as ADP-ribosyl donor.
A stock solution of [^3H]-NAD^+/NAD was made by adding 64.6 μl of [^3H]-NAD^+ (0.1 mCi/ml, supplier: Perkin Elmer) and 46.7 μl NAD-stock (10.7 mM, stored at −20° C., supplier Roche) to 1888.7 μl assay buffer (60 mM Tris/HCl, pH 7.4; 0.9 mM DTT; 6 mM MgCl2). The TANK-2 enzyme was produced as described in EP1238063.60 μl of assay buffer, together with 1 μl of compound in DMSO, 20 μl of [^3H]-NAD^+/NAD and 20 μl of TANK-2 enzyme (final concentration 6 μg/ml) was added per well into a 96-well Ni-coated flash plate (Perkin Elmer). After incubation of the mixture for 120 min. at room temperature, the reaction was terminated by adding 60 μl of stopsolution (42.6 mg NAD in 6 ml H2O). The plates were covered with a plate sealer and placed in a TopCountNXT™ (Packard) for scintillation counting. Values were expressed as counts per minute (cpm). For each experiment, controls (containing TANK-2 enzyme and DMSO without compound), a blank incubation (containing DMSO but no TANK-2 enzyme or compound) and samples (containing TANK-2 enzyme and compound dissolved in DMSO) were run in parallel. All compounds tested were dissolved and eventually further diluted in DMSO. […] In each test, the blank value was subtracted from both the control and the sample values. The control sample represented maximal TANK-2 enzyme activity. For each sample, the amount of cpm was expressed as a percentage of the mean cpm value of the controls. When appropriate, IC50-values (concentration of the drug, needed to reduce the TANK-2 enzyme activity to 50% of the control) were computed using linear interpolation between the experimental points just above and below the 50% level. Herein the effects of test compounds are expressed as pIC50 (the negative log value of the IC50-value). As reference compounds, 3-aminobenzamide and 4-amino-1,8-naphthalimide were included to validate the SPA assay. Herein the assay was described using 96-well plates. In the assay using 384-well plates the same final concentrations were used and volumes were adapted.
Background: In a scintillation proximity assay essentially only radioactivity close to the scintillant gives light.
The IC50 is the concentration that inhibits the measured activity by half. A lower IC50 goes with higher potency. Take `O=c1[nH]nc(NC2CCN(C[C@@H](O)[C@@H]3CCc4ccccc4O3)CC2)c2ccccc12` (relative stereo) [Compound 27]: the IC50 was above 10 µM. On the same count and under the same terms, in the case of `O=c1[nH]nc(C2CCN(Cc3ccccc3)CC2)c2ccccc12` [Compound 1] it was 8.43 µM. As for `O=c1[nH]nc(N[C@@H]2C[C@H]3CC[C@@H](C2)N3CCCC(c2ccc(F)cc2)c2ccc(F)cc2)c2ccccc12` [Compound 3], it took 5.05 µM to reach half-maximal inhibition (IC50).

`O=c1[nH]nc(C2CCNCC2)c2ccccc12` [Compound 4]: the IC50 was above 10 µM.

`CCOC(=O)N1[C@@H]2CC[C@H]1C[C@H](Nc1n[nH]c(=O)c3ccccc13)C2` [Compound 11] gave a 50% inhibitory concentration (IC50) of 2.13 µM.

As for `Clc1nnc(NC2CCN(Cc3ccccc3)C2)c2ccccc12` (stereo not shown) [Compound 12], the midpoint of inhibition, the IC50, lay at 9.27 µM.

In the case of `O=c1[nH]nc(C2CCN(CCCOc3ccc(F)cc3)CC2)c2ccccc12` [Compound 13], the IC50 is above 10 µM. On the same count and under the same terms, in the case of `O=c1[nH]nc(N[C@@H]2C[C@H]3CC[C@@H](C2)N3)c2ccccc12` [Compound 15] it was above 10 µM. `CCOC(=O)N1[C@@H]2CC[C@H]1C[C@H](Nc1nnc(Cl)c3ccccc13)C2` [Compound 24]: the IC50 is 4.37 µM. As for `CCOC(=O)N1CCC(c2n[nH]c(=O)c3ccccc23)CC1` [Compound 25], the 50% inhibitory concentration (IC50) was above 10 µM. Compound `Cc1nnc(N2CCN(CCCC(c3ccc(F)cc3)c3ccc(F)cc3)CC2)c2ccccc12` [Compound 29] showed a concentration for half-maximal inhibition (IC50) above 10 µM. With `O=c1[nH]nc(NC2CCCN(CCCC(c3ccc(F)cc3)c3ccc(F)cc3)CC2)c2ccccc12` (stereo not shown) [Compound 30], the half-inhibitory concentration (IC50) was 4 µM. The same measure, in the same setting: in the case of `O=c1[nH]nc(NC2CCCNCC2)c2ccccc12` (stereo not shown) [Compound 34] it was above 10 µM; in that of `O=c1[nH]nc(NCC2CCCN(Cc3ccccc3)C2)c2ccccc12` (stereo not shown) [Compound 44], above 10 µM.

Consider `O=c1[nH]nc(NC2CCN(CCCCOc3ccccc3)CC2)c2ccccc12` [Compound 46], for which the IC50 was above 10 µM. On to `CCOC(=O)N1CCC(Nc2n[nH]c(=O)c3ccccc23)C1` (stereo not shown) [Compound 48], for which the IC50 is above 10 µM.

As for `O=c1[nH]nc(NCC2CCCN(CCCC(c3ccc(F)cc3)c3ccc(F)cc3)C2)c2ccccc12` (stereo not shown) [Compound 49], the IC50 was 1.56 µM. As to `CCOC(=O)N1CCCC(Nc2n[nH]c(=O)c3ccccc23)CC1` (stereo not shown) [Compound 50], the IC50 is above 10 µM. `O=c1[nH]nc(NC2CCN(Cc3ccccc3)C2)c2ccccc12` (stereo not shown) [Compound 51] displayed an IC50 above 10 µM. In turn, `O=c1[nH]nc(N2CCN(CCCC(c3ccc(F)cc3)c3ccc(F)cc3)CC2)c2ccccc12` [Compound 52] had an IC50 of 6.55 µM. `O=c1[nH]nc(NC2CCCN(Cc3ccccc3)C2)c2ccccc12` (stereo not shown) [Compound 53]: the IC50 was above 10 µM. Same read-out and setting: then `O=c1[nH]nc(N2CCC(c3cccc(C(F)(F)F)c3)C2)c2ccccc12` (stereo not shown) [Compound 55], with 1.5 µM.

The compound `CCOC(=O)N1CCC(Nc2n[nH]c(=O)c3ccccc23)CC1` [Compound 56] returned an IC50 above 10 µM. On the same count and under the same terms, then `Fc1ccc(C(CCCN2CCN(c3nnc(Cl)c4ccccc34)CC2)c2ccc(F)cc2)cc1` [Compound 57], with 5.08 µM; and `CCOC(=O)N1CCN(c2nnc(Cl)c3ccccc23)CC1` [Compound 58], with 9.02 µM; and `Clc1nnc(NC2CCN(CCCCOc3ccccc3)CC2)c2ccccc12` [Compound 59], with above 10 µM. On the same count and under the same terms, then `CN(c1nc2ccccc2s1)C1CCN(c2nnc(Cl)c3ccccc23)CC1` [Compound 61], with above 10 µM; and `COc1ccc(CCN2CCC(Nc3n[nH]c(=O)c4ccccc34)CC2)cc1` [Compound 63], with above 10 µM. `O=c1[nH]nc(NC2CCN(C/C=C/c3ccccc3)CC2)c2ccccc12` [Compound 65] had an IC50 above 10 µM. Regarding `O=c1[nH]nc(C2CCN(C/C=C/c3ccccc3)CC2)c2ccccc12` [Compound 66], the IC50 is 4.33 µM. Turning to `O=c1[nH]nc(C2CCN(CCCC(c3ccc(F)cc3)c3ccc(F)cc3)CC2)c2ccccc12` [Compound 67], the IC50 is above 10 µM. `O=c1[nH]nc(C2CCN(CCCCOc3ccccc3)CC2)c2ccccc12` [Compound 68] had a 50% inhibitory concentration (IC50) above 10 µM. Same read-out and setting: then `O=c1[nH]nc(C2CCN(c3ncccn3)CC2)c2ccccc12` [Compound 69], with 5.52 µM; and `Cc1nnc(N2CCN(CCn3c(=O)[nH]c4ccccc4c3=O)CC2)c2ccccc12` [Compound 70], with 3.73 µM; and `Cc1nnc(N2CCN(CCn3c(=O)[nH]c4ccccc43)CC2)c2ccccc12` [Compound 71], with above 10 µM. Still for that read-out and setting: in the case of `Cc1nc2ccccn2c(=O)c1CCN1CCN(c2nnc(C)c3ccccc23)CC1` [Compound 72] it was above 10 µM. Still for that read-out and setting: then `Cc1nc2sccn2c(=O)c1CCN1CCN(c2nnc(C)c3ccccc23)CC1` [Compound 73], with above 10 µM; and `Cc1nc2scc(C)n2c(=O)c1CCN1CCN(c2nnc(C)c3ccccc23)CC1` [Compound 74], with 4.69 µM. On to `Cc1nc2n(c(=O)c1CCN1CCN(c3nnc(C)c4ccccc34)CC1)CCS2` [Compound 75], for which the IC50 is above 10 µM. The compound `Cc1nc2n(c(=O)c1CCN1CCN(c3nnc(C)c4ccccc34)CC1)CCCS2` [Compound 76] returned an IC50 above 10 µM.

In turn, `Clc1nnc(N2CCN(c3ccccc3)CC2)c2ccccc12` [Compound 77] gave a concentration for half-maximal inhibition (IC50) of 8.83 µM.

Test system in the next data set: not given
Assay: not given
In general, melting point refers to the temperature of the solid-liquid transition. `O=c1[nH]nc(C2CCN(Cc3ccccc3)CC2)c2ccccc12` [Compound 1] registered a melting point of 222 °C.

In turn, `CCOC(=O)N1[C@@H]2CC[C@H]1C[C@H](Nc1n[nH]c(=O)c3ccccc13)C2` [Compound 11] showed a melting point of 218.6 °C.
